Here are results for five compounds from patent US9676786B2, “Pharmacologically active compounds” (The University of Liverpool, priority 2013, dated 2017).

In one data set the target is α1 glycine receptor (Homo sapiens (Human), UniProt P23415). The experiment in a line: Expression and electrophysiological characterization of glycine receptor activity (patch/voltage clamp). The class given is cell-based. The settings on record: modulation of agonist induced currents at glycine EC20; means ± s.d. On the procedure: Human embryonic kidney (HEK) 293 cells (ATCC CRL 1573) and/or Xenopus laevis oocytes were used for expressing the human a1-3 glycine receptor subunit as well as human a1, b3, g2 GABA receptor subunit cDNAs inserted into mammalian expression vectors. Patch- and voltage-clamp recording from receptor expressing cells was performed at a holding potential of −70 mV in normal Ringer solution and digitized for analyses. Dose-response curves of agonist induced peak currents (I) were normalized to the maximal current value obtained and fitted with the sigmoidal Hill equation using a Gauss Marquardt iteration, where EC50 represents the glycine/GABA concentration resulting in a half maximal response. Effects of the compounds tested on agonist induced currents were analysed after superfusing the cells with the respective compound for 5 seconds prior to and during agonist application and dose-response curves of modulated currents were determined in the presence of agonist concentrations eliciting a response corresponding to 20% of the maximal inducible current (EC20 value). Results represent means±s.d. and the significance of the data was evaluated using Student's paired t test and considered to be statistically significant at P<0.05.
Chain of α1 glycine receptor (P23415 29-457 limits assumed): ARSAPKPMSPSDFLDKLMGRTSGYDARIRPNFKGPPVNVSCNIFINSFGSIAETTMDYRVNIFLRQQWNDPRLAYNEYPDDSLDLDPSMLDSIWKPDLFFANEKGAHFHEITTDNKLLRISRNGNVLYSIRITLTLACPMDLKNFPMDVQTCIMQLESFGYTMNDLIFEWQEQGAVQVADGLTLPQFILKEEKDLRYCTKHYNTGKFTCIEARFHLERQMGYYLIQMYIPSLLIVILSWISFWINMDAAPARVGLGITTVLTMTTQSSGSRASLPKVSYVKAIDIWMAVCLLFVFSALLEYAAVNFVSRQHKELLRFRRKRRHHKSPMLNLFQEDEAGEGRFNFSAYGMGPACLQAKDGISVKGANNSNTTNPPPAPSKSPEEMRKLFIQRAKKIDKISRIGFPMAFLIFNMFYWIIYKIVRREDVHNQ

Data set [1] is described as follows: Pharmacokinetic evaluation, oral dosing in rats. The class given is in vivo, rat. The following applies: 10 mg/kg oral, SSV, non-fasted rats. As for the experimental part:
• Dose—10 mg/kg (5 mL/kg) • Route—ORAL • Vehicles—10% DMSO/10% Solutol and SSV • Time—24 h • Procedure Number—6 Vehicles • 10% DMSO/10% Solutol/80% Saline • 1) Compound was weighed out into a clean vial. • 2) DMSO was added into the vial; the vial was vortexed and sonicated it for 15 min. • 3) Solutol HS 15 was heated at 50° C. until a liquid formed, and then was added into the vial. The vial was vortexed for 1-2 min. • 4) 0.9% Saline solution was added to the vial. The vial was vortexed and then sonicated for 10 min. Standard Suspension Vehicle (SSV) • 1) A solution of SSV was made using 0.5% Sodium carboxymethylcellulose, 0.5% Benzyl alcohol, 0.4% Tween80 and 98.6% saline (0.9%) • 2) Compound was weighed out into a clean vial • 3) SSV solution was added into the vial; the vial was vortexed and sonicated it for 15 min. Fasted Rats
Fasted rats were fasted overnight and given access to food immediately after dosing.
• 1) Rats were manually restrained and given a 10 mg/kg oral dose of compound at 5 mL/kg. • 2) At designated time points (0.25, 0.5, 1, 3, 5, 7 and 24 hours) the rats were anaesthetised using isoflurane. • 3) Approximately 300 μL of blood was taken from the tail vein using a 1.5 inch needle treated with heparin and collected into 1.5 mL eppendorf tubes. • 4) After sampling, pressure was applied to the puncture until bleeding ceased. The animals were returned to their cages and given free access to food and water. • 5) Blood samples were stored on ice and then centrifuged at 13,000 rpm for 15 min to separate the plasma. • 6) 150 μL of the plasma was treated with 300 μL of ACN:MeOH (1:1) solution containing the internal standard. The samples were then centrifuged for a further 15 min at 13,000 rpm. • 7) 200 μL of the supernatant was collected and placed in LC-MS vials for analysis. All samples were stored at −80° C. Results

Data set [2] deals with neuropathic rats. The experiment in a line: Comparison of LT-01-25 and LT-01-89: ipsilateral paw withdrawal thresholds to mechanical pressure in neuropathic rats. The class given is in vivo, rat. The following applies: 30 mg/kg p.o., male SD rats. As for the experimental part:
Male, SD rats. n=6/group. Vehicle: 10% DMSO/10% Solutol HS15/80% saline.
• 1) In rats a peripheral neuropathy was induced by partial ligation of the sciatic nerve in one hind limb. • 2) Two weeks (12-15 days) after induction of peripheral neuropathy stable mechanical (tactile) allodynia was induced in the hind paw of the affected limb. • 3) Five treatment groups of male SD rats (n=8) were used: vehicle control (drug formulation), 3 drug doses, and a positive control, lamotrigine (30 mg/kg). Animals were randomized between groups and the experiment was carried out using blinded conditions. The study was split with n=4/group in each experiment. • 4) Baseline behavioural measurements were obtained prior to surgery and at intervals post-surgery. Predose behavioural measurements were obtained by measuring paw withdrawal thresholds 12-15 days following nerve ligation. • 5) Compound efficacy was determined by measuring paw withdrawal thresholds at specified intervals following vehicle/compound treatment. Methods Animals
Animals were maintained in a controlled lighting environment and given food and water ad libitum. Male Sprague Dawley rats (120-140 g at time of surgery) were used.
Rats were fasted overnight with free access to water and fed 4 hours post-dose.
Tests compounds as well as Lamotrigine (30 mg/kg, volume: 10 ml/kg)) were prepared in the designated formulation (10% DMSO, Solutol HS 15/80% and 0.9% saline for p.o. administration) and administered via the chosen route.
Rats were anaesthetised (isoflurane/O2 inhalation), the left sciatic nerve was exposed at mid-thigh level through a small incision and ⅓ to ½ of the nerve thickness tightly ligated within a 7.0 silk suture. The wound was closed with skin clips. Animals were allowed to recover and compounds administered 12-15 days following surgery.
Compound/vehicle were administered at specified doses. Following treatment, further readings were taken; 1, 3, 6 and 24 hour after p.o. administration.

The subject of data set [3] is neuropathic rats. Description: Comparison of LT-01-25 and LT-01-89: ipsilateral withdrawal latencies to cold (10° C.) stimulus in neuropathic rats. The following applies: 30 mg/kg p.o., male SD rats. The class given is in vivo, rat.
Data set [4] in a line: Cerebrospinal fluid (CSF) levels after oral dosing. The class given is in vivo. The following applies: p.o. dose 3 mg/kg, after 2 hr, fasted male SD rat.
A further data set is described as follows: Rat microsomal stability. The following applies: Rat microsomes, 1 μM. The class given is in vitro ADME. An excerpt:
Rat and human microsomal stability data was obtained using well established protocols known to those skilled in the art.

Data set [5] in a line: Human microsomal stability. The class given is in vitro ADME. The settings on record: human microsomes, 1 μM. On the procedure:
The metabolic stability assay was performed by incubating each test compound (1 μM) with human liver microsomes in duplicate at 37° C. and 0.4 mg/mL protein concentration. The metabolic reaction was initiated by the addition of a NADPH-regenerating system (i.e. NADPH is the cofactor required for CYP450-mediated metabolism) and quenched at various time points over the 60 minute incubation period by the addition of acetonitrile. Control samples (containing no NADPH) were included (and quenched at 2, 30 and 60 minutes) to monitor for potential degradation in the absence of cofactor. Samples were analysed by UPLC-MS (Waters/Micromass Xevo G2 QTOF) under positive electrospray ionisation and MS spectral data acquired in a mass range of 80 to 1200 Daltons.
Test compound concentration versus time data were fitted to an exponential decay function to determine the first-order rate constant for substrate depletion. In cases where clear deviation from first-order kinetics was evident, only the initial linear portion of the profile was utilised to determine the degradation rate constant (k). Each substrate depletion rate constant was then used to calculate: [1] a degradation half-life, [2] an in vitro intrinsic clearance value (CLint, in vitro); [3] a predicted in vivo hepatic intrinsic clearance value (CLint); [4] a predicted in vivo blood clearance value (CLblood); and [5] a predicted in vivo hepatic extraction ratio (EH).
• 1) The substrate concentration employed is well below the apparent KM for substrate turnover; and, • 2) There is no significant product inhibition, nor is there any mechanism-based inactivation of enzyme. The use of hepatic microsomes in the prediction of the in vivo hepatic extraction ratio has two further inherent assumptions (Obach, 1999) which: • 1) NADPH-dependent oxidative metabolism predominates over other metabolic routes (i.e. direct conjugative metabolism, reduction, hydrolysis, etc.); and, • 2) Rates of metabolism and enzyme activities in vitro are truly reflective of those that exist in vivo. Data should be considered within these terms of reference.

The test system of data set [6] is neuropathic rats. The experiment in a line: Mechanical hyperalgesia, paw withdrawal thresholds in neuropathic rats (partial sciatic nerve ligation). The class given is in vivo, rat. The following applies: neuropathic Wistar rats; positive control. From the text: (§1) The wound was closed with skin clips.
(§2) Control animals received vehicle alone.

The test system of data set [7] is neuropathic rats. The experiment in a line: Cold sensitivity (10° C. cold plate), paw withdrawal latencies in neuropathic rats. The settings on record: neuropathic Wistar rats; positive control. The class given is in vivo, rat.
Source text: as §1, §2

At α1 glycine receptor, `CC(C)c1cc(C(=O)N2CCO[C@H](C)C2)cc(C(C)C)c1O` [Example 2, (R)-(4-(hydroxy)-3,5-diisopropylphenyl)(2-methylmorpholino)methanone] had an EC50 of 0.06 nM.

On to `CC(C)c1cc(C(=O)N2CC(F)C2)cc(C(C)C)c1O` [Example 3, (3-Fluoroazetidin-1-yl)(4-hydroxy-3,5-diisopropylphenyl) methanone], for which, at α1 glycine receptor, the concentration giving a half-maximal response (EC50) came out at 0.43 nM.

`CC(C)c1cc(C(=O)N2CCN(C)CC2)cc(C(C)C)c1O` [Example 6, (4-Hydroxy-3-5-diisopropylphenyl)(4-methylpiperazin-1-yl)methanone]: the EC50 on α1 glycine receptor turned out to be 0.0012 nM.

In the case of `CC(C)(C)c1cc(C(=O)N2CCOCC2)cc(C(C)(C)C)c1O` [LT-01-89, (4-(hydroxy)-3,5-di-tertbutyl)(morpholino)methanone, reference compound], in data set [1], the “AUC∞ (area)” value was 5931.7 ng·h/mL, the “CL (area)/kg” value worked out at 17.947 mL/min/kg, the Cmax came out at 471.2 ng/mL and the “Half Life” value stood at 20.4 h. In data set [1], the Tmax turned out to be 1.2 h and the “Vd (area)/kg” value came to 32.7299 L/kg. Further, in the data set with neuropathic rats [2] (1 hr), the “Mechanical pressure Percentage reversal of predose hyperalgesia” value (from here on “Mechanical pressure Percentage reversal”) came out at 1 hr - - - 70%. Further, the “Mechanical pressure Percentage reversal” value in the data set with neuropathic rats [2] (3 hr) stood at 3 hr - - - 50%. In the data set with neuropathic rats [2] (6 hr), the “Mechanical pressure Percentage reversal” value came out at 6 hr - - - 20%. The “Cold (10° C.) Stimulus Percentage reversal of predose Hyperalgesia” value in the data set with neuropathic rats [3] (1 hr) is given as 1 hr - - - 70%. Further, in the data set with neuropathic rats [3] (3 hr), the “Cold (10° C.) Stimulus Percentage reversal of predose Hyperalgesia” value is given as 3 hr - - - 65%. In addition, the “Cold (10° C.) Stimulus Percentage reversal of predose Hyperalgesia” value in the data set with neuropathic rats [3] (6 hr) was found to be 6 hr - - - 10%. For the same compound, in data set [4], the CSF levels was determined as 27 ng/mL and the “CSF levels as multiple of EC50” value is reported as “(180 × EC50)”. In the data set “Rat microsomal stability”, the Cl was 20.38 mL/min/kg and the t1/2 came out at 2.02 h. Also, in the data set “Rat microsomal stability” (second set marked *), the “Cl (values marked *)” value is 5.26 mL/min/kg (Cl)* and the “t1/2 (values marked *)” value was 165 min (t1/2)*. Also, in data set [5], the “Cl (values marked *)” value is listed as 6.2 mL/min/kg (Cl) * and the “t1/2 (values marked *)” value was 138.6 min (t1/2) *.

As to `Nc1nnc(-c2cccc(Cl)c2Cl)c(N)n1` [lamotrigine, reference compound], the “Reversal, mechanical (positive control)” value in the data set on neuropathic rats [6] was determined as 65%. The “Reversal, cold (positive control)” value in the data set with neuropathic rats [7] is on record as 72%.
